How the values were obtained:
barnyard grass [1] = test: Test Example 3: herbicidal effect by foliage application, Wagner pot (Table 18, symbol H); type: in vivo, barnyard grass (Echinochloa crus-galli); details: 320 g/ha
How it was run: (§1)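 Plants were sown in alluvial soil held under 0.1–0.5 cm standing water and grown 14 days in a greenhouse at 25–30 °C. An emulsifiable formulation, water-diluted to the set dose, was then sprayed onto the foliage, and effects were scored three weeks later using previously defined criteria.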

redroot pigweed [2] = test: Test Example 4: herbicidal effect by soil treatment (Table 19, symbol N); type: in vivo, redroot pigweed (Amaranthus retroflexus); details: AAH 320 g/ha
How it was run: (§2)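 Emulsion of test compound, water-diluted to predetermined amount, sprayed on soil after sowing (seed depth ~1.5 cm, sterilized diluvial soil). Greenhouse, 25–30° C. Effect graded at three weeks post-spray.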

velvetleaf [3] = test: Test Example 5: herbicidal effect by foliage application, plastic box (Table 20, symbol M); type: in vivo, velvetleaf (Abutilon theophrasti); details: foliage application, AAH 320 g/ha, three weeks after application
How it was run: (§3)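 Post-emergence foliar test in sterilized diluvial soil. Compound applied as water-diluted emulsion at a predetermined rate to 14-day-old plants; evaluation at three weeks.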

persian speedwell [4] = test: Test Example 5: herbicidal effect by foliage application, plastic box (Table 20, symbol R); type: in vivo, Persian speedwell (Veronica persica); details: foliage application, AAH 320 g/ha, three weeks after application
How it was run: as §3

chickweed [5] = test: Test Example 4: herbicidal effect by soil treatment (Table 19, symbol P); type: in vivo, common chickweed (Stellaria media); details: AAH 320 g/ha
How it was run: as §2

blackgrass [6] = test: Test Example 5: herbicidal effect by foliage application, plastic box (Table 20, symbol J); type: in vivo, blackgrass (Alopecurus myosuroides); details: foliage application, AAH 320 g/ha, three weeks after application
How it was run: as §3

Italian ryegrass [7] = test: Test Example 4: herbicidal effect by soil treatment (Table 19, symbol K); type: in vivo, Italian ryegrass (Lolium multiflorum); details: AAH 320 g/ha
How it was run: as §2

velvetleaf [8] = test: Test Example 4: herbicidal effect by soil treatment (Table 19, symbol M); type: in vivo, velvetleaf (Abutilon theophrasti); details: AAH 320 g/ha
How it was run: as §2

rice flat sedge = test: Test Example 3: herbicidal effect by foliage application, Wagner pot (Table 18, symbol E); type: in vivo, rice flat sedge (Cyperus iria); details: 320 g/ha
How it was run: as §1

green foxtail [9] = test: Test Example 5: herbicidal effect by foliage application, plastic box (Table 20, symbol G); type: in vivo, green foxtail (Setaria viridis); details: foliage application, AAH 320 g/ha, three weeks after application
How it was run: as §3

windgrass [10] = test: Test Example 5: herbicidal effect by foliage application, plastic box (Table 20, symbol L); type: in vivo, windgrass (Apera spica-venti); details: foliage application, AAH 320 g/ha, three weeks after application
How it was run: as §3

Italian ryegrass [11] = test: Test Example 5: herbicidal effect by foliage application, plastic box (Table 20, symbol K); type: in vivo, Italian ryegrass (Lolium multiflorum); details: foliage application, AAH 320 g/ha, three weeks after application
How it was run: as §3

southern crabgrass [12] = test: Test Example 4: herbicidal effect by soil treatment (Table 19, symbol F); type: in vivo, southern crabgrass (Digitaria ciliaris); details: AAH 320 g/ha
How it was run: as §2

wild oat [13] = test: Test Example 5: herbicidal effect by foliage application, plastic box (Table 20, symbol I); type: in vivo, wild oat (Avena fatua); details: foliage application, AAH 320 g/ha, three weeks after application
How it was run: as §3

windgrass [14] = test: Test Example 4: herbicidal effect by soil treatment (Table 19, symbol L); type: in vivo, windgrass (Apera spica-venti); details: AAH 320 g/ha
How it was run: as §2

lambsquarters [15] = test: Test Example 4: herbicidal effect by soil treatment (Table 19, symbol O); type: in vivo, lambsquarters (Chenopodium album); details: AAH 320 g/ha
How it was run: as §2

wild oat [16] = test: Test Example 4: herbicidal effect by soil treatment (Table 19, symbol I); type: in vivo, wild oat (Avena fatua); details: AAH 320 g/ha
How it was run: as §2

lambsquarters [17] = test: Test Example 5: herbicidal effect by foliage application, plastic box (Table 20, symbol O); type: in vivo, lambsquarters (Chenopodium album); details: foliage application, AAH 320 g/ha, three weeks after application
How it was run: as §3

redroot pigweed [18] = test: Test Example 5: herbicidal effect by foliage application, plastic box (Table 20, symbol N); type: in vivo, redroot pigweed (Amaranthus retroflexus); details: foliage application, AAH 320 g/ha, three weeks after application
How it was run: as §3

Chinese sprangletop = test: Test Example 3: herbicidal effect by foliage application, Wagner pot (Table 18, symbol D); type: in vivo, chinese sprangletop (Leptochloa chinensis); details: 320 g/ha
How it was run: as §1

blackgrass [19] = test: Test Example 4: herbicidal effect by soil treatment (Table 19, symbol J); type: in vivo, blackgrass (Alopecurus myosuroides); details: AAH 320 g/ha
How it was run: as §2

persian speedwell [20] = test: Test Example 4: herbicidal effect by soil treatment (Table 19, symbol R); type: in vivo, Persian speedwell (Veronica persica); details: AAH 320 g/ha
How it was run: as §2

green foxtail [21] = test: Test Example 4: herbicidal effect by soil treatment (Table 19, symbol G); type: in vivo, green foxtail (Setaria viridis); details: AAH 320 g/ha
How it was run: as §2

barnyard grass [22] = test: Test Example 5: herbicidal effect by foliage application, plastic box (Table 20, symbol H); type: in vivo, barnyard grass (Echinochloa crus-galli); details: foliage application, AAH 320 g/ha, three weeks after application
How it was run: as §3

southern crabgrass [23] = test: Test Example 5: herbicidal effect by foliage application, plastic box (Table 20, symbol F); type: in vivo, southern crabgrass (Digitaria ciliaris); details: foliage application, AAH 320 g/ha, three weeks after application
How it was run: as §3

chickweed [24] = test: Test Example 5: herbicidal effect by foliage application, plastic box (Table 20, symbol P); type: in vivo, common chickweed (Stellaria media); details: foliage application, AAH 320 g/ha, three weeks after application
How it was run: as §3

barnyard grass [25] = test: Test Example 4: herbicidal effect by soil treatment (Table 19, symbol H); type: in vivo, barnyard grass (Echinochloa crus-galli); details: AAH 320 g/ha
How it was run: as §2

| SMILES | herbicidal effect on H (barnyard grass), rating 0-5 (barnyard grass [1]) | N: redroot pigweed, herbicidal effect rating (redroot pigweed [2]) | M: velvetleaf, herbicidal effect (velvetleaf [3]) | R: persian speedwell, herbicidal effect (persian speedwell [4]) | P: chickweed, herbicidal effect rating (chickweed [5]) | J: blackgrass, herbicidal effect (blackgrass [6]) | K: Italian ryegrass, herbicidal effect rating (Italian ryegrass [7]) | M: velvetleaf, herbicidal effect rating (velvetleaf [8]) | herbicidal effect on E (rice flat sedge), rating 0-5 (rice flat sedge) | G: green foxtail, herbicidal effect (green foxtail [9]) | L: windgrass, herbicidal effect (windgrass [10]) | K: Italian ryegrass, herbicidal effect (Italian ryegrass [11]) | F: southern crabgrass, herbicidal effect rating (southern crabgrass [12]) | I: wild oat, herbicidal effect (wild oat [13]) | L: windgrass, herbicidal effect rating (windgrass [14]) | O: lambsquarters, herbicidal effect rating (lambsquarters [15]) | I: wild oat, herbicidal effect rating (wild oat [16]) | O: lambsquarters, herbicidal effect (lambsquarters [17]) | N: redroot pigweed, herbicidal effect (redroot pigweed [18]) | herbicidal effect on D (Chinese sprangletop), rating 0-5 (Chinese sprangletop) | also measured |
| --- | --- | --- | --- | --- | --- | --- | --- | --- | --- | --- | --- | --- | --- | --- | --- | --- | --- | --- | --- | --- | --- |
| CCCC(=O)Oc1c(OC)nn(C)c(=O)c1-c1c(-c2ccc(C#N)cc2)sc2ccccc12 [1-171] | 3 (Herbicidal rate of 40% or more and less than 70%) | 5 (Herbicidal rate of 90% or more (almost completely withered)) | 4 (Herbicidal rate of 70% or more and less than 90%) | 4 (Herbicidal rate of 70% or more and less than 90%) | 5 (Herbicidal rate of 90% or more (almost completely withered)) | 0 (Herbicidal rate of 5% or less (almost no effect)) | 0 (Herbicidal rate of 5% or less (almost no effect)) | 0 (Herbicidal rate of 5% or less (almost no effect)) | 4 (Herbicidal rate of 70% or more and less than 90%) | 0 (Herbicidal rate of 5% or less (almost no effect)) | 0 (Herbicidal rate of 5% or less (almost no effect)) | 0 (Herbicidal rate of 5% or less (almost no effect)) | 5 (Herbicidal rate of 90% or more (almost completely withered)) | 0 (Herbicidal rate of 5% or less (almost no effect)) | 0 (Herbicidal rate of 5% or less (almost no effect)) | 3 (Herbicidal rate of 40% or more and less than 70%) | 0 (Herbicidal rate of 5% or less (almost no effect)) | 4 (Herbicidal rate of 70% or more and less than 90%) | 5 (Herbicidal rate of 90% or more (almost completely withered)) | 0 (Herbicidal rate of 5% or less (almost no effect)) | J: blackgrass, herbicidal effect rating (blackgrass [19]): 0 (Herbicidal rate of 5% or less (almost no effect)); R: persian speedwell, herbicidal effect rating (persian speedwell [20]): 4 (Herbicidal rate of 70% or more and less than 90%); G: green foxtail, herbicidal effect rating (green foxtail [21]): 0 (Herbicidal rate of 5% or less (almost no effect)); H: barnyard grass, herbicidal effect (barnyard grass [22]): 0 (Herbicidal rate of 5% or less (almost no effect)); F: southern crabgrass, herbicidal effect (southern crabgrass [23]): 0 (Herbicidal rate of 5% or less (almost no effect)); P: chickweed, herbicidal effect (chickweed [24]): 5 (Herbicidal rate of 90% or more (almost completely withered)); H: barnyard grass, herbicidal effect rating (barnyard grass [25]): 0 (Herbicidal rate of 5% or less (almost no effect)) |
| COc1cc(F)ccc1-c1sc2ccccc2c1-c1c(O)c(OC)nn(C)c1=O [1-176] | 4 (Herbicidal rate of 70% or more and less than 90%) | 5 (Herbicidal rate of 90% or more (almost completely withered)) | 5 (Herbicidal rate of 90% or more (almost completely withered)) | 5 (Herbicidal rate of 90% or more (almost completely withered)) | 5 (Herbicidal rate of 90% or more (almost completely withered)) | 4 (Herbicidal rate of 70% or more and less than 90%) | 1 (Herbicidal rate of 5% or more and less than 20%) | 1 (Herbicidal rate of 5% or more and less than 20%) | 5 (Herbicidal rate of 90% or more (almost completely withered)) | 5 (Herbicidal rate of 90% or more (almost completely withered)) | 5 (Herbicidal rate of 90% or more (almost completely withered)) | 3 (Herbicidal rate of 40% or more and less than 70%) | 4 (Herbicidal rate of 70% or more and less than 90%) | 4 (Herbicidal rate of 70% or more and less than 90%) | 5 (Herbicidal rate of 90% or more (almost completely withered)) | 4 (Herbicidal rate of 70% or more and less than 90%) | 3 (Herbicidal rate of 40% or more and less than 70%) | 5 (Herbicidal rate of 90% or more (almost completely withered)) | 5 (Herbicidal rate of 90% or more (almost completely withered)) | 3 (Herbicidal rate of 40% or more and less than 70%) | J: blackgrass, herbicidal effect rating (blackgrass [19]): 5 (Herbicidal rate of 90% or more (almost completely withered)); R: persian speedwell, herbicidal effect rating (persian speedwell [20]): 5 (Herbicidal rate of 90% or more (almost completely withered)); G: green foxtail, herbicidal effect rating (green foxtail [21]): 5 (Herbicidal rate of 90% or more (almost completely withered)); H: barnyard grass, herbicidal effect (barnyard grass [22]): 5 (Herbicidal rate of 90% or more (almost completely withered)); F: southern crabgrass, herbicidal effect (southern crabgrass [23]): 4 (Herbicidal rate of 70% or more and less than 90%); P: chickweed, herbicidal effect (chickweed [24]): 5 (Herbicidal rate of 90% or more (almost completely withered)); H: barnyard grass, herbicidal effect rating (barnyard grass [25]): 5 (Herbicidal rate of 90% or more (almost completely withered)) |
| CCCC(=O)Oc1c(OC)nn(C)c(=O)c1-c1c(-c2ccc(F)cc2OC)sc2ccccc12 [1-177] | 4 (Herbicidal rate of 70% or more and less than 90%) | 5 (Herbicidal rate of 90% or more (almost completely withered)) | 4 (Herbicidal rate of 70% or more and less than 90%) | 4 (Herbicidal rate of 70% or more and less than 90%) | 5 (Herbicidal rate of 90% or more (almost completely withered)) | 4 (Herbicidal rate of 70% or more and less than 90%) | 0 (Herbicidal rate of 5% or less (almost no effect)) | 0 (Herbicidal rate of 5% or less (almost no effect)) | 4 (Herbicidal rate of 70% or more and less than 90%) | 5 (Herbicidal rate of 90% or more (almost completely withered)) | 4 (Herbicidal rate of 70% or more and less than 90%) | 1 (Herbicidal rate of 5% or more and less than 20%) | 3 (Herbicidal rate of 40% or more and less than 70%) | 3 (Herbicidal rate of 40% or more and less than 70%) | 0 (Herbicidal rate of 5% or less (almost no effect)) | 2 (Herbicidal rate of 20% or more and less than 40%) | 3 (Herbicidal rate of 40% or more and less than 70%) | 4 (Herbicidal rate of 70% or more and less than 90%) | 5 (Herbicidal rate of 90% or more (almost completely withered)) | 0 (Herbicidal rate of 5% or less (almost no effect)) | J: blackgrass, herbicidal effect rating (blackgrass [19]): 0 (Herbicidal rate of 5% or less (almost no effect)); R: persian speedwell, herbicidal effect rating (persian speedwell [20]): 4 (Herbicidal rate of 70% or more and less than 90%); G: green foxtail, herbicidal effect rating (green foxtail [21]): 5 (Herbicidal rate of 90% or more (almost completely withered)); H: barnyard grass, herbicidal effect (barnyard grass [22]): 4 (Herbicidal rate of 70% or more and less than 90%); F: southern crabgrass, herbicidal effect (southern crabgrass [23]): 3 (Herbicidal rate of 40% or more and less than 70%); P: chickweed, herbicidal effect (chickweed [24]): 5 (Herbicidal rate of 90% or more (almost completely withered)); H: barnyard grass, herbicidal effect rating (barnyard grass [25]): 3 (Herbicidal rate of 40% or more and less than 70%) |
